Here are results for 20 molecules from US20240043794A1, “Chemically Defined Serum Albumin Substitutes” (Life Technologies Corporation, priority 2020, published 2024).

In data set [1] the test system is rat neurons. Kind of data set: Rat neuron viability with low or high GSH or lipoic acid. It counts as cell-based. To be noted: low or high concentration, compared to control culture. As for the experimental part:
Applicants then tested chemically defined components that may replace the catalase and thiol antioxidant activity of albumins. GSH and lipoic acid were assessed for their ability to provide catalase and thiol antioxidant activity by culturing rat neurons in the presence of either low or high concentrations of GSH or lipoic acid and subsequently assaying cell viability.

The nature of data set [2]: Superoxide Dismutase (SOD) Colorimetric Activity Kit. The class given is biochemical. To be noted: range of concentrations.
Description: Applicants first analyzed the superoxide dismutase (SOD) activity of various albumins, utilizing the Superoxide Dismutase (SOD) Colorimetric Activity Kit (Thermo Fisher Scientific, Waltham, MA), according to the manufacturer's protocol. Briefly, SOD activity was assessed utilizing an assay comprising the reaction of a substrate and Xanthine Oxidase to form superoxide (O^−2), the levels of which are decreased by SOD activity.
Next, the ability of chemically defined components to replace SOD antioxidant activity was tested. Mito-Tempo, which scavenges O2•^− in mitochondria, was compared with HSA for its ability to reduce superoxide, as assessed using the Superoxide Dismutase (SOD) Colorimetric Activity Kit (Thermo Fisher Scientific, Waltham, MA), according to the manufacturer's protocol.
For data set [3], the system named is Rat cortical neuron (RCN) cells. Kind of data set: Rat cortical neuron (RCN) survival in neurobasal medium with ITS. It counts as cell-based. Conditions: for RCN cell survival: increasing concentrations, assessed on day 6. From the text:
(§1) Trolox (6-hydroxy-2,5,7,8-tetramethylchroman-2-carboxylic acid), a water-soluble derivative of Vitamin E, was investigated as a replacement for albumin. […] Without any anti-oxidant, aged neurons started to degenerate at about day 4, leaving few viable neurons left on the plate.

Another data set is described as follows: Water solubility. The class given is physicochemical. To be noted: compared to Vitamin E.
Description: as §1

A further data set relates to neuronal cell. Description: Interactions between B27 supplement components and albumins, neuronal cell viability. To be noted: B27-supplemented media. It counts as cell-based. As for the experimental part:
Next, interactions between different components of B27 supplement and various albumins were analyzed (FIGS. 1B-1J). The effect of these molecular interactions were also assessed for their effect on neuronal cell stability in cell culture.

In data set [4] the test system is rat neurons.
Description: (§5) The effect of different BSAs on cell viability was tested using the eBioscience™ Calcein AM Viability Dye, according to manufacturer's protocol. Briefly, rat neurons were cultured in neurobasal medium supplemented with ITS and BSA1 or BSA2 at a concentration of 0.25%.
(§6) The ability of antioxidant to reverse iron-induced toxicity was then investigated. Tocopherol at a concentration of 2 μg/mL in neurobasal medium supplemented with lean supplement (Insulin-Transferrin-Selenium, ITS) was added to cultured rat neuron cells and either BSA1 or BSA2.
The subject of data set [5] is rat neuron cells. Kind of data set: Rat neuron viability with synthetic peptides replacing albumin. The class given is cell-based. To be noted: for viability of cultured rat neuron cells, HSA-like function: FIG. 11; for rat neuron cell viability, HSA supportive properties: culture medium lacking albumin, FIG. 10; for rat neuron cell growth: neurobasal medium with ITS, day 5, Calcein AM, FIG. 20. The text has this: Albumins such as HSA have a metal binding site, which functions as a chelator of transition metals that are toxic to neuron cells. Applicants therefore investigated whether HSA may be replaced by a synthetic peptide, which mimics the high affinity binding of the functional metal binding site. […] Peptide B, which is the Peptide C sequence extended by 5 additional flanking HSA residues on either end, was similarly non-functional. […] Without wishing to be bound by scientific theory, the additional amino acid residues may block or otherwise inhibit the chelating functions of the Peptide C sequence.
The importance of Peptide C ionic property and sequence specificity in conferring enhancing properties to cell cultures was investigated. The tetrapeptide DAHK (SEQ ID NO:1) is a sequence comprising negatively, neutral, and two positively charged amino acids (−X++). […] To assess if amino acid sequence or charge specificity confers beneficial properties, a scrambled Peptide C sequence was prepared and tested. The scrambled peptide comprising the sequence AKDH (SEQ ID NO: 3; scramble) and charge of X+−+ was tested, and results are shown in FIG. 11.
To determine the impact of peptide length, Applicants assessed a variety of peptides that varied both in length and in the identity of the amino acid residue(s) that flank the Peptide C DAHK sequence (SEQ ID NO:1). Further, to assess the effect of ionic property, peptides were tested that included amino acid substitutions to the peptide of SEQ ID NO:1. The amino acid substitutions were designed to retain ionic and hydrophobic properties of SEQ ID NO:1, namely by preserving the order of negatively charged, hydrophobic uncharged, and positively charged residues. […] The cultures were further supplemented with rHSA, or a variation of the Peptide C derived synthetic peptide.
In a first set of cell cultures, the synthetic peptides included the DAHK (SEQ ID NO:1) amino acid sequence or peptides with additional residues on one or both the N-terminus and C-terminus of SEQ ID NO:1. On day 5 of culturing, the cells were labeled with Calcein AM and counted. […] That is, the length of adjacent residues on the N-terminus and C-terminus of the peptide is not critical for maintaining the function of peptide C unless the conformation is impacted as so not to maintain its beneficial properties in cell culture.

For data set [6], the system named is mouse pluripotent stem cells (PSC). Description: B-27 supplemented cell culture performance of albumins, mouse PSC. The class given is cell-based. To be noted: B-27 supplemented culture. As for the experimental part: (§2) Commercially available albumins were analyzed for performance in cell cultures. Bovine serum albumin (BSA), human serum albumin (HSA) and recombinant human serum albumin (Rec HSA) from various sources (including different manufacturers, bovine, human, recombinant HSA (made in yeast or rice), and Freestyle CHO MAX media (Thermo Fisher cat. no. K900020) were analyzed. B-27 (Thermo Fisher Scientific cat. no. 17504044) supplemented cell cultures for mouse pluripotent stem cells (PSC), primary rat neurons, or human neural stem cells (NSC) were prepared (approx. 0.5 to 1× final concentration of B27 in medium). The cultures varied only in the source or type of albumin present. Results shown in FIG. 1A illustrate that significant performance differences existed among the albumins tested, and further that performance is dependent on cell type. In fact, two cultures comprising the same cell line and differing only in addition of BSA1 or BSA2 differed in performance.

For data set [7], the system named is human neural stem cells (NSC). Description: B-27 supplemented cell culture performance of albumins, human NSC. The class given is cell-based. Conditions: B-27 supplemented culture. As for the experimental part: as §2
In data set [8] the test system is FoxG1 expression in pluripotent stem cells (PSC). Kind of data set: FoxG1 expression and specification of PSC differentiation, ICC and qPCR. The class given is cell-based, human. As for the experimental part: Peptide C (SEQ ID NO:1) was assessed for its effect on cell differentiation. […] Without wishing to be bound by theory, this was likely due to variations in cholesterol levels within the albumin samples. To assess the effect of the tetrapeptide […] on cell differentiation, pluripotent stem cells (PSC) were cultured in the presence either BSA1, BSA2, or peptide C. […] Results are shown in FIGS. 17A and 17B, respectively. […] Upon differentiation, cells will develop their positional identity such as forebrain, midbrain, hindbrain etc. Specification is the step where PSC develop this positional identification.
In general terms: Real-time PCR tracks product formation cycle by cycle.

The subject of data set [9] is rat neurons. Description: Calcein AM viability assay of rat neurons in neurobasal medium with ITS.
Description: as §5, §6
Data set [10] has as its system Mouse embryonic stem cells (mESC). Description: mESC proliferation, PrestoBlue assay. To be noted: compared to BSA1. It counts as cell-based. As for the experimental part:
(§3) BSA1 and BSA2 were further analyzed for their effect on stem cells. Mouse embryonic stem cells (mESC) or human neural stem cells (hNSC) were grown in cell culture media containing BSA1 or BSA2, and proliferation was measured. Proliferation of mESCs was measured using PrestoBlue assay (Thermo Fisher Scientific) according to the manufacturer's protocol. Proliferation of hNSCs was measured with VI-CELL™ XR cell counting assay (Beckman Coulter) according to the manufacturer's protocol.

Data set [11] deals with human neural stem cells (hNSC). Description: hNSC proliferation, VI-CELL XR cell counting assay. The class given is cell-based. To be noted: compared to BSA1. As to the method:
as §3

Data set [12] has as its system mouse embryonic stem cell (mESC). Kind of data set: Copper-stressed mESC proliferation, PRESTOBLUE viability. To be noted: 50 μM copper, 100 μg/mL or 50 μg/mL peptide. It counts as cell-based. As for the experimental part:
(§4) The effect of metals and synthetic peptides were further assessed in mouse embryonic stem cell (mESC) and HEK293 cell proliferation cultures. mESC and HEK293 cultures were spiked with 50 μM copper, thereby creating a toxic culture environment and inhibiting cell proliferation. […] PRESTOBLUE™ cell viability reagent (Thermo Fisher Scientific, Waltham, MA), was used to assess viability according to the manufacturer's protocol.

The next data set relates to HEK293 cells. Description: Copper-stressed HEK293 proliferation, PRESTOBLUE viability. It counts as cell-based. To be noted: 50 μM copper, 100 μg/mL or 50 μg/mL peptide. As to the method: as §4
Data set [13] in a line: Lot-to-lot consistency and shelf life of the peptide. It counts as physicochemical. To be noted: multiple lots, in solution.
The subject of data set [14] is rat neuron cells. To be noted: 50 μM copper, neurobasal medium with ITS.

Where two headings read alike, the source gives them in different places.

`O=C(O)CCCC[C@@H]1CCSS1` (racemic) [Lipoic acid, lipoic acid]: in the data set with rat neurons [1], the “rat neuron cell viability” value is “enhanced rat neuron cell viability”.

Consider `N[C@@H](CCC(=O)N[C@@H](CS)C(=O)NCC(=O)O)C(=O)O` [GSH, glutathione], for which the “rat neuron cell viability” value with rat neurons [1] is recorded as “neither concentration of GSH tested showed significant effects on cell viability”.

In the case of `CC1(C)CC(NC(=O)C[P+](c2ccccc2)(c2ccccc2)c2ccccc2)CC(C)(C)N1[O]` [Mito-Tempo, (2-(2,2,6,6-tetramethylpiperidin-1-oxyl-4-ylamino)-2-oxoethyl)triphenylphosphonium chloride], the superoxide levels entry in data set [2] is listed as “decrease superoxide levels in a dose-dependent manner”.

Consider `Cc1c(C)c2c(c(C)c1O)CCC(C)(C(=O)O)O2` (stereo not drawn) [Trolox, 6-hydroxy-2,5,7,8-tetramethylchroman-2-carboxylic acid], for which, in data set [3] (compared to Vitamin E), the working range result is given as “wider working range than Vitamin E”. Also, the RCN cell survival result in data set [3] is given as “reversed cell death”. Besides, in “Water solubility”, the water solubility entry was “higher water solubility”.

Take `CC(=O)Oc1c(C)c(C)c2c(c1C)CCC(C)(CCC[C@H](C)CCC[C@H](C)CCCC(C)C)O2` (stereo partly drawn) [X2, Tocopherol acetate]: the “effect on neuronal cell viability of B27 component interacting with BSA and HSA” value in the data set with neuronal cell is “positive effects on neuronal cell viability”.

As for `[Fe]` [iron], the rat neuron viability entry with rat neurons [4] is “rat neuron viability was decreased”.

As for AKDH [reference compound], the “viability of cultured rat neuron cells, HSA-like function” value (shortened to “viability of cultured rat neuron cells”) in the data set with rat neuron cells [5] is “the HSA-like function was abolished”.

For “BSA1: BSA source with higher iron content; fatty acid free”, the cell culture performance entry in [6] and in [7] was “supportive properties” each time. Further, the “specification of PSC differentiation” value in data set [8] is recorded as “specification of PSC differentiation was impacted”. For the same molecule, the rat neuron viability result with rat neurons [9] (albumin at 0.25%, compared to BSA2) is “reduced viability of rat neurons”.

As to “BSA2: BSA from a second source; fatty acid rich”, the cell culture performance entry in data set [6] and in data set [7] was “caused toxicity” each time. In addition, the “proliferation of mESC” value in data set [10] was “reduces proliferation”. The “proliferation of hNSC” value in data set [11] was “reduces proliferation”. The “specification of PSC differentiation” value in [8] was “specification of PSC differentiation was impacted”.

As for DAHK [Peptide C], in the data set with rat neuron cells [5], the “viability of cultured rat neuron cells” value is on record as “functional in improving viability of cultured rat neuron cells” and the “rat neuron cell viability, HSA supportive properties” value is “enhanced rat neuron cell viability”. Also, the “rescue of copper stressed cells” value in data set [12] was “rescued the stressed cells in a concentration dependent manner”. Also, in the data set on HEK293 cells, the “rescue of copper stressed cells” value is “to a lesser extent”. Further, the “lot-to-lot consistency and shelf life” value in data set [13] is “lot-to-lot consistency and good shelf life, even in solution”. The “specification of PSC differentiation” value in data set [8] was “no significant impact”. Also, the “prevention of copper induced toxicity” value in the data set on rat neuron cells [14] is given as “prevented toxicity even in the presence of copper”.

Regarding DTHK [counterpart BSA peptide], in the data set with rat neuron cells [5], the “viability of cultured rat neuron cells” value is listed as “functional in improving viability of cultured rat neuron cells”.

Consider FRRDAHKSEV [SEQ ID NO:16], for which the “rat neuron cell growth” value in the data set with rat neuron cells [5] is listed as “convey beneficial properties to cell culture”.

Consider FRRDAHKSEVA [SEQ ID NO:17], for which the “rat neuron cell growth” value in the data set on rat neuron cells [5] is on record as “convey beneficial properties to cell culture”.

Turning to GVFRRDAHKSEVAH [Peptide B], the “rat neuron cell viability, HSA supportive properties” value in the data set with rat neuron cells [5] is on record as “non-functional”.

In the case of RRDAHK [SEQ ID NO:12], the “rat neuron cell growth” value in the data set on rat neuron cells [5] is recorded as “convey beneficial properties to cell culture”.

As to RRDAHKS [SEQ ID NO:13], in the data set with rat neuron cells [5], the “rat neuron cell growth” value is “convey beneficial properties to cell culture”.

RRDAHKSE [SEQ ID NO:15]: in the data set on rat neuron cells [5], the “rat neuron cell growth” value was “convey beneficial properties to cell culture”.

As for SAYSRGVFRRDAHKSEVAHRFKD [peptide A], the “rat neuron cell viability, HSA supportive properties” value with rat neuron cells [5] is “did not retain HSA supportive properties”.

For Tocopherol [reference compound], the “effect on neuronal cell viability of B27 component interacting with BSA and HSA” value with neuronal cell is on record as “positive effects on neuronal cell viability”. Besides, the “reversal of decreased viability due to BSA1 or iron” value with rat neurons [9] (2 μg/mL) is “reversed decreased viability of the rat neuron cells”.

As to Vitamin E, the RCN cell survival result in data set [3] is on record as “reversed cell death”.
